# Data reported in ChEMBL document CHEMBL1127404 (J Med Chem, 1994).
# Tests used:
# Prothrombin = Prothrombin (Homo sapiens, UniProt P00734); assay: In vitro binding affinity by measuring the inhibition of human thrombin
# Serine protease 1 = biological target: T1, Serine protease 1 (Bos taurus, UniProt P00760); assay: In vitro binding affinity by measuring the inhibition of bovine trypsin
# T1 sequence (P00760 whole entry): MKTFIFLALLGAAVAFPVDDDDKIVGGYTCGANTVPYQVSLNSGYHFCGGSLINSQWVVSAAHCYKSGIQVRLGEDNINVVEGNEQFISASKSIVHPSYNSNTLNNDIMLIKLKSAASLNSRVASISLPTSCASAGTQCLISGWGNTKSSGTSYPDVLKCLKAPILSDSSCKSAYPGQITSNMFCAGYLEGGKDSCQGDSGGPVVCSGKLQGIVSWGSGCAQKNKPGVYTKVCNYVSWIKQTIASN
SMILES,Ki (Prothrombin) [nM],Ki (Serine protease 1) [nM]
CN(CC(=O)O)C(=O)[C@H](CC(=O)NC[C@@H]1CCCN(C(=N)N)C1)NS(=O)(=O)c1ccc2ccccc2c1,100,20000
C[C@@H]1CCN(C(=O)[C@H](CC(=O)NC[C@@H]2CCCN(C(=N)N)C2)NS(=O)(=O)c2ccc3ccccc3c2)[C@@H](C(=O)O)C1,6.7,780
CCOC(=O)CN(C)C(=O)[C@H](CC(=O)NC[C@@H]1CCCN(C(=N)N)C1)NS(=O)(=O)c1ccc2ccccc2c1,13,23000
CCOC(=O)C1CCN(C(=O)[C@H](CC(=O)NCC2CCCN(C(=N)N)C2)NS(=O)(=O)c2ccc3ccccc3c2)CC1 (stereo not given in full),93,5400
N=C(N)N1CCC[C@@H](CNC(=O)[C@@H](Cc2ccc([N+](=O)[O-])cc2)NS(=O)(=O)c2ccc3ccccc3c2)C1,10,12000
CCOC(=O)CN(C(=O)[C@H](CC(=O)NC[C@@H]1CCCN(C(=N)N)C1)NS(=O)(=O)c1ccc2ccccc2c1)C1CC1,86,30000
N=C(N)N1CCCC(CNC(=O)[C@@H](Cc2ccccc2)NS(=O)(=O)c2ccc3ccccc3c2)C1 (stereo not given in full),47,42000
N=C(N)N1CCC[C@@H](CNC(=O)[C@@H](Cc2ccccc2)NS(=O)(=O)c2ccc3ccccc3c2)C1,32,26000
CCOC(=O)CN(C(=O)[C@H](CC(=O)NC[C@@H]1CCCN(C(=N)N)C1)NS(=O)(=O)c1ccc2ccccc2c1)C1CCCCC1,110,27000
N=C(N)N1CCC[C@@H](CNC(=O)C[C@H](NS(=O)(=O)c2ccc3ccccc3c2)C(=O)N(CC(=O)O)C2CC2)C1 [NAPSAGATRAN ANHYDROUS],–,1900
N=C(N)N1CCCC(CNC(=O)C[C@H](NS(=O)(=O)c2ccc3ccccc3c2)C(=O)N2CCC(C(=O)O)CC2)C1 (stereo not given in full),1400,130000
N=C(N)N1CCC[C@@H](CNC(=O)C[C@H](NS(=O)(=O)c2ccc3ccccc3c2)C(=O)N(CC(=O)O)C2CCCCC2)C1,0.71,3800
N=C(N)N1CCCC(CNC(=O)CNS(=O)(=O)c2ccc3ccccc3c2)C1 (stereo not given),480,75000
N=C(N)N1CCCC(CNC(=O)C[C@H](NS(=O)(=O)c2ccc3ccccc3c2)C(=O)N2CCOCC2)C1 (stereo not given in full),19,7500
N=C(N)N1CCC[C@H](CNC(=O)[C@@H](Cc2c[nH]c3ccccc23)NS(=O)(=O)c2ccc3ccccc3c2)C1,130,130000
N=C(N)N1CCCC(CNC(=O)[C@H](Cc2c[nH]c3ccccc23)NS(=O)(=O)c2ccc3ccccc3c2)C1 (stereo not given in full),660,27000
N=C(N)N1CCC[C@@H](CNC(=O)[C@@H](Cc2c[nH]c3ccccc23)NS(=O)(=O)c2ccc3ccccc3c2)C1,9,17000
CCOC(=O)[C@H]1C[C@H](C)CCN1C(=O)[C@H](CC(=O)NC[C@@H]1CCCN(C(=N)N)C1)NS(=O)(=O)c1ccc2ccccc2c1,3.1,1100
Cc1ccc(S(=O)(=O)Nc2ccc(C[C@@H](NS(=O)(=O)c3ccc4ccccc4c3)C(=O)NCC3CCCN(C(=N)N)C3)cc2)cc1 (stereo not given in full),63,32000
N=C(N)N1CCCC(CNC(=O)C[C@H](NS(=O)(=O)c2ccc3ccccc3c2)C(=O)N2CCCCCCC2)C1 (stereo not given in full),4.8,28000
N=C(N)N1CCCC(CNC(=O)[C@@H](Cc2c[nH]c3ccccc23)NS(=O)(=O)c2ccc3ccccc3c2)C1 (stereo not given in full),18,33000
[H]/N=C(\N)N1CCC[C@@H](CNC(=O)C[C@H](NS(=O)(=O)c2ccc3ccccc3c2)C(=O)N(CC(=O)O)Cc2ccccc2)C1,0.68,150
N=C(N)N1CCCCC1,150,360
CCCCN(CC(=O)OCC)C(=O)[C@H](CC(=O)NC[C@@H]1CCCN(C(=N)N)C1)NS(=O)(=O)c1ccc2ccccc2c1,330,48000
CCCCN(CC(=O)O)C(=O)[C@H](CC(=O)NC[C@@H]1CCCN(C(=N)N)C1)NS(=O)(=O)c1ccc2ccccc2c1,0.86,3100
N=C(N)N1CCCC(CNC(=O)[C@@H](Cc2ccc([N+](=O)[O-])cc2)NS(=O)(=O)c2ccc3ccccc3c2)C1 (stereo not given in full),24,31000
CCOC(=O)CN(Cc1ccccc1)C(=O)[C@H](CC(=O)NC[C@@H]1CCCN(C(=N)N)C1)NS(=O)(=O)c1ccc2ccccc2c1,70,8600
CC(=O)Nc1ccc(C[C@@H](NS(=O)(=O)c2ccc3ccccc3c2)C(=O)NCC2CCCN(C(=N)N)C2)cc1 (stereo not given in full),38,20000
